One assay concerns MT2. Briefly: Concentration resulting in 90% inhibition of viral RNA production in HIV-1 infected MT-2 cells. The class given is functional. The settings on record: Homo sapiens.
For assay [1], the target named is Human immunodeficiency virus type 1 protease (Human immunodeficiency virus 1, UniProt Q72874). Kind of assay: Inhibitory activity against HIV protease enzyme.

From ChEMBL document CHEMBL1152012, “Synthesis of (+)-biotin derivatives as HIV-1 protease inhibitors” (Bioorg Med Chem Lett, 1996) come the findings set out here.

As a reminder, the IC90 is the concentration needed for an effect of 90%. The Ki is the dissociation constant of the complex between target and ligand, obtained from inhibition or displacement. Turning to `COC(=O)CCCC[C@@H]1SCC2C1N(Cc1cccc(Br)c1)C(=O)N2Cc1cccc(Br)c1` (some centres not stated), in the assay on MT2, the IC90 is 44 µM. In addition, the Ki in assay [1] was determined as 0.58 µM.
In the same order, the values of `O=C1N(Cc2cccc(Br)c2)C2CS[C@@H](CCCCCO)C2N1Cc1cccc(Br)c1` (some centres not stated) are 7 µM and 0.5 µM.
`CC(=O)c1cccc(CN2C(=O)N(Cc3cccc(C(C)=O)c3)C3C2CS[C@H]3CCCCCO)c1` (some centres not stated) yielded an IC90 with MT2 of 26 µM. In addition, affinity in assay [1] was put at a Ki of 3.7 µM.
In the same order, the values of `O=C1N(Cc2ccccc2)C2CS[C@@H](CCCCCO)C2N1Cc1ccccc1` (some centres not stated) are 46 µM and 10.3 µM.
For the compound `CC(=O)c1cccc(COC(=O)CCCC[C@@H]2SCC3C2N(Cc2cccc(C(C)=O)c2)C(=O)N3Cc2cccc(C(C)=O)c2)c1` (some centres not stated), it took 12.5 µM to reach the 90% level in the assay on MT2 (IC90). Besides, affinity in assay [1] was put at a Ki of 3.4 µM.
`O=C(O)CCCC[C@@H]1SCC2C1N(Cc1cccc(Br)c1)C(=O)N2Cc1cccc(Br)c1` (some centres not stated): in the assay with MT2, the IC90 was determined as 34 µM. Besides, the Ki in assay [1] came to 2.2 µM.
The compound `COC(=O)CCCC[C@H]1C2C(CS1(=O)=O)N(Cc1cccc(Br)c1)C(=O)N2Cc1cccc(Br)c1` (some centres not stated) gave an IC90 in the assay with MT2 of over 80 µM. In assay [1], this compound registered a Ki of 4.1 µM.
In the assay on MT2, `O=C1N(Cc2cccc(Br)c2)C2CS(=O)(=O)[C@@H](CCCCCO)C2N1Cc1cccc(Br)c1` (some centres not stated) showed an IC90 of 80 µM. Besides, the affinity in assay [1] corresponds to a Ki of 6.9 µM.
The matching figures for `O=C(CCCC[C@@H]1SCC2C1N(Cc1cccc(Br)c1)C(=O)N2Cc1cccc(Br)c1)OCc1cccc(Br)c1` (some centres not stated): 45 µM and 0.68 µM.
With `C/C(=N\O)c1cccc(COC(=O)CCCC[C@@H]2SCC3C2N(Cc2cccc(/C(C)=N/O)c2)C(=O)N3Cc2cccc(/C(C)=N/O)c2)c1` (some centres not stated), the 90% effect level in the assay on MT2 (IC90) was put at 67 µM. Also, affinity in assay [1] was put at a Ki of 2.7 µM.
In the same order, the values of `CC(O)c1cccc(CN2C(=O)N(Cc3cccc(C(C)O)c3)C3C2CS[C@H]3CCCCCO)c1` (some centres not stated) are over 98 µM and 1.9 µM.
